# How the values were obtained:
# PARP1 = PARP1 (Homo sapiens (Human), UniProt P09874); experiment: PARP fluorescence anisotropy binding assay, PARP1
# Protocol: Recombinant full length 6HIS tagged PARP1 protein was diluted to 6 nM with 50 mM Tris pH 8, 0.001% Triton X100, 10 mM MgCl2, 150 mM NaCl and incubated for four hours with an equivalent volume of 2 nM fluorescent probe diluted with 50 mM Tris pH 8, 0.001% Triton X100, 10 mM MgCl2, 150 mM NaCl. The final DMSO concentration of the probe was kept below 1% (v/v).
# PARP6 = PARP6 (Homo sapiens (Human), UniProt Q2NL67); experiment: PARP fluorescence anisotropy binding assay, PARP6
# Protocol: (§1) Recombinant full length GST tagged PARP6 protein was diluted to 160 nM with 50 mM Tris pH 8, 0.001% Triton X100, 10 mM MgCl2, 150 mM NaCl and incubated for four hours with an equivalent volume of 6 nM fluorescent probe diluted with 50 mM Tris pH 8, 0.001% Triton X100, 10 mM MgCI2, 150 mM NaCl. The final DMSO concentration of the probe was kept below 1% (v/v).
# Fluorescence anisotropy of the probe when bound to the proteins was measured using a BMG Pherastar FSX® in the presence of test compounds or solvent control and the effect on anisotropy determined. % inhibition values for different test compound concentrations were calculated and fitted to a four parameter logistic plot in order to determine the IC50 value. Where necessary, the compound K, can be determined from the IC50 value using a Munson Rodbard equation defined in Anal Biochem. 1980 Sep. 1; 107(1):220-39 and is based on the known KD of the probe binding to the relevant PARP protein
# PARP5a = PARP5a (Homo sapiens (Human), UniProt O95271); experiment: PARP fluorescence anisotropy binding assay, PARP5a
# PARP5a, sequence (O95271 1112-1317): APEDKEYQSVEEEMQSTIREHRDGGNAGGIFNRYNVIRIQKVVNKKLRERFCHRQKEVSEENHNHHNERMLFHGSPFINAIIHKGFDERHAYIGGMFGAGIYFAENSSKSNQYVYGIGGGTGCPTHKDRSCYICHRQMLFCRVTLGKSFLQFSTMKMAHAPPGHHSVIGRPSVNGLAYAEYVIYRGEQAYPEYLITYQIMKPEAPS
# Protocol: Recombinant PARP5a binding domain was diluted to 160 nM with 50 mM Tris pH 8, 0.001% Triton X100, 10 mM MgCl2, 150 mM NaCl and incubated for four hours with an equivalent volume of 6 nM fluorescent probe diluted with 50 mM Tris pH 8, 0.001% Triton X100, 10 mM MgCl2, 150 mM NaCl. The final DMSO concentration of the probe was kept below 1% (v/v).
# PARP2 = PARP2 (Homo sapiens (Human), UniProt Q9UGN5); experiment: PARP fluorescence anisotropy binding assay, PARP2
# PARP2, sequence (Q9UGN5 whole entry): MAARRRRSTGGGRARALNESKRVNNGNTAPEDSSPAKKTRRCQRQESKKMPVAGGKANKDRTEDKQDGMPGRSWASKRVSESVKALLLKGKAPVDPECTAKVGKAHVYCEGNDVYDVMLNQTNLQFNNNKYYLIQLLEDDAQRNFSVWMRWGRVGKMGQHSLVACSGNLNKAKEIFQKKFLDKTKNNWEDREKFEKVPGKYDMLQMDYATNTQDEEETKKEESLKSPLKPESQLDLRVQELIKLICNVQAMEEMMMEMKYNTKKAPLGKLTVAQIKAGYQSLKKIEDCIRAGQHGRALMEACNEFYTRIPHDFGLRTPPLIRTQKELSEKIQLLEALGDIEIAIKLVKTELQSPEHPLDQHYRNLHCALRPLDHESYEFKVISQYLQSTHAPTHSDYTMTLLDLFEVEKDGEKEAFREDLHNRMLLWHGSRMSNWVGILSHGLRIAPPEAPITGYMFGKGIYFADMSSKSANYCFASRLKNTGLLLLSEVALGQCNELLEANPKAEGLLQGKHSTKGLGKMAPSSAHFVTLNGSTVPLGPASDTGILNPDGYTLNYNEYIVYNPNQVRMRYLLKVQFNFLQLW
# Protocol: as §1, with “PARP2” for “GST tagged PARP6”, “6” for “160”, “2” for “6”, “MgCl2,” for “MgCI2,”
# Fluorescence anisotropy of the probe when bound to the proteins was measured using a BMG Pherastar FSX® in the presence of test compounds or solvent control and the effect on anisotropy determined. % inhibition values for different test compound concentrations were calculated and fitted to a four parameter logistic plot in order to determine the IC50 value.
# PARP3 = PARP3 (Homo sapiens (Human), UniProt Q9Y6F1); experiment: PARP fluorescence anisotropy binding assay, PARP3
# PARP3, sequence (Q9Y6F1 whole entry): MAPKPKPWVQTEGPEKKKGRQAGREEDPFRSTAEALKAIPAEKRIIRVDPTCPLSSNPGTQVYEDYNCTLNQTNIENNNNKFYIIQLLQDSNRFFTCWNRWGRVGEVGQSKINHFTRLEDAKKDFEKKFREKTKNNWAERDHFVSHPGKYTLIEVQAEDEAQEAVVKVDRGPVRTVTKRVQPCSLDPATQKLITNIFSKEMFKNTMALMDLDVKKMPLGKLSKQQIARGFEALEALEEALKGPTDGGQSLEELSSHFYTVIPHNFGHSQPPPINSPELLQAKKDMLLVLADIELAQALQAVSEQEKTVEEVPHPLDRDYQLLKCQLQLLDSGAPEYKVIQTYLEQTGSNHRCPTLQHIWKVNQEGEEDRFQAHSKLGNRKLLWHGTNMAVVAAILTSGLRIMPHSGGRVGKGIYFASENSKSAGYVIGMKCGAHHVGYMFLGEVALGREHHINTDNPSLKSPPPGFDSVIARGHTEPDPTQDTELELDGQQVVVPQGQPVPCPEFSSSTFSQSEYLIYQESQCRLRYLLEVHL
# Protocol: Recombinant full length PARP3 protein was diluted to 100 nM with 50 mM Tris pH 8, 0.001% Triton X100, 10 mM MgCl2, 150 mM NaCl and incubated for four hours with an equivalent volume of 6 nM fluorescent probe diluted with 50 mM Tris pH 8, 0.001% Triton X100, 10 mM MgCl2, 150 mM NaCl. The final DMSO concentration of the probe was kept below 1% (v/v).
# MDR1 and BCRP = experiment: In vitro human transporter efflux (MDCK-MDR1-BCRP); conditions: human, pH 7.4
# Protocol: MDCKII cells expressing MDR1 and BCRP were seeded onto polyethylene membranes in 96-well Transwell insert systems at a density to form a confluent cell monolayer. […] The final percent volume of the organic solvent was less than 1%. Permeation of the test compounds from A to B direction and from B to A direction was determined over a 90-min incubation at 37° C. and 5% CO2 with a relative humidity of 95%. At the end of the incubation, samples from the apical and basolateral side were taken and then precipitated with cold acetonitrile containing internal standard. After centrifugation at 4000 rpm, the supernatant was diluted with 0.1% formic acid aqueous solution and quantified by LC-MS/MS. The integrity of the cell monolayers was confirmed by using the marker Lucifer yellow.
# The permeability coefficient (1×10-6 cm/s) was calculated using the following equation
# (1) The Efflux Ratio was Calculated Using the Following Equation
# Efflux ratio=Papp(B to A)/Papp(A to B)
# (2) where dCr/dt is the cumulative concentration of the compound in the receiver chamber as a function of time (in μM/s); Vr is the solution volume in the receiver chamber (0.1 ml on the apical side and 0.3 ml on the basolateral side); A is the surface area for the transport, that is, 0.11 cm2 for the area of the monolayer; and C0 is the initial concentration in the donor chamber (in μM).
# PARP6, sequence (Q2NL67 whole entry): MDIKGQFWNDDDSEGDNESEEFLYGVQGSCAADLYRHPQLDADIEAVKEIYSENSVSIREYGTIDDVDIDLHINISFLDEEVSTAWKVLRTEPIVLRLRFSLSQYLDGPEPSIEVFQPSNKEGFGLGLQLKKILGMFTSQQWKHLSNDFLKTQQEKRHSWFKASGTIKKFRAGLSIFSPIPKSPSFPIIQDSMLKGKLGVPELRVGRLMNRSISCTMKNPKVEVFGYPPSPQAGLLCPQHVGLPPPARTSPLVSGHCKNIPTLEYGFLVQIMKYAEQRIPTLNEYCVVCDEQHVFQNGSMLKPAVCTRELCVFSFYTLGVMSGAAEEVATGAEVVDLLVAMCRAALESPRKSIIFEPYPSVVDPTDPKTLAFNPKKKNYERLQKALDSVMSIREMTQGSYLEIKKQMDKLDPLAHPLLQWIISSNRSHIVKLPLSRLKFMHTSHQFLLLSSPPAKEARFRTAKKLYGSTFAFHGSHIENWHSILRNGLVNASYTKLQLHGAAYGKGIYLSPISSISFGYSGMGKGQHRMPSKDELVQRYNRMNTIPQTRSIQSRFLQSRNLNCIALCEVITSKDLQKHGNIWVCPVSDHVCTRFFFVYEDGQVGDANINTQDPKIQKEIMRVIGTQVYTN
# PARP1, sequence (P09874 whole entry): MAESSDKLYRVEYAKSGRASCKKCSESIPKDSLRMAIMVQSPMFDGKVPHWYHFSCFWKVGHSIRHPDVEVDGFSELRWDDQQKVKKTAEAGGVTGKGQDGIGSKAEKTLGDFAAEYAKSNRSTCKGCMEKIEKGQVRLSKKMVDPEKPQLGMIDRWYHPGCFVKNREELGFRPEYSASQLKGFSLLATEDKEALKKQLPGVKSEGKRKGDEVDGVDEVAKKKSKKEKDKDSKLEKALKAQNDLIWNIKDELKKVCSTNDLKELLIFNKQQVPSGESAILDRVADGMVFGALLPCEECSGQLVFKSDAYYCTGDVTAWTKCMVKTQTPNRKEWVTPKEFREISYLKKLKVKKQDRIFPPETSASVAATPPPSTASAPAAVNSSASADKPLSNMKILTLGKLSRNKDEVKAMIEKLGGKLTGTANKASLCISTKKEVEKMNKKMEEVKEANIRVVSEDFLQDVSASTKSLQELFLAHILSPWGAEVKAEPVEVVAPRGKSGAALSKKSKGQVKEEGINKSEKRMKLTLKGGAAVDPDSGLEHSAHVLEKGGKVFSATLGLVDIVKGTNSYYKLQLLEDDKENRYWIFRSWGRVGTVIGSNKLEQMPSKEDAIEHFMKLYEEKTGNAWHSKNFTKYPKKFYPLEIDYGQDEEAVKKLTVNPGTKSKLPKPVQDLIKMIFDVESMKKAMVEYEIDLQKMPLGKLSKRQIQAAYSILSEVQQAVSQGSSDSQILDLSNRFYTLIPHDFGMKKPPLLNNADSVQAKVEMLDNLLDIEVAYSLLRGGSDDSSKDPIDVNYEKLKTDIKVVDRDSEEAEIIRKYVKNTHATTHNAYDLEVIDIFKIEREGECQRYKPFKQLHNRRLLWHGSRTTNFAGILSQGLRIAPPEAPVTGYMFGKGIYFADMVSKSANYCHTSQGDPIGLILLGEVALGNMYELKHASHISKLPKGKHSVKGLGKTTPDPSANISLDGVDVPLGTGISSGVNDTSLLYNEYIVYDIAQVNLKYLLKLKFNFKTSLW
Compound,IC50 (PARP1) [µM],IC50 (PARP6) [µM],IC50 (PARP5a) [µM],IC50 (PARP2) [µM],IC50 (PARP3) [µM],efflux ratio at 90 min (MDR1 and BCRP)
"CNC(=O)c1ccc(N2CCN(Cc3ccc4nc(C)c(=O)[nH]c4c3C)CC2)c(Cl)n1 [Example 3, 6-chloro-5-[4-[(2,5-dimethyl-3-oxo-4H-quinoxalin-6-yl)methyl]piperazin-1-yl]-N-methyl-pyridine-2-carboxamide]",0.003,> 100,> 100,> 100,> 100,1.3
"CCc1nc2ccc(CN3CCN(c4ccc(C(=O)NC)nc4F)CC3)c(Cl)c2[nH]c1=O [Example 9, 5-[4-[(5-chloro-2-ethyl-3-oxo-4H-quinoxalin-6-yl)methyl]piperazin-1-yl]-6-fluoro-N-methyl-pyridine-2-carboxamide]",0.004,–,–,–,–,0.4
"CNC(=O)c1ccc(N2CCN(Cc3ccc4nc(C(C)(F)F)c(=O)[nH]c4c3F)CC2)c(C)n1 [Example 19, 5-[4-[[2-(1,1-difluoroethyl)-5-fluoro-3-oxo-4H-quinoxalin-6-yl]methyl]piperazin-1-yl]-N,6-dimethyl-pyridine-2-carboxamide]",0.013,–,–,40,–,2.4
"CNC(=O)c1ccc(N2CCN(Cc3ccc4nc(C)c(=O)[nH]c4c3F)CC2)c(C(F)F)n1 [Example 21, 6-(difluoromethyl)-5-[4-[(5-fluoro-2-methyl-3-oxo-4H-quinoxalin-6-yl)methyl]piperazin-1-yl]-N-methyl-pyridine-2-carboxamide]",0.007,> 100,> 100,> 100,5.8,1.6
"CCc1nc2ccc(CN3CCN(c4ccc(C(=O)NC)nc4C(F)F)CC3)c(F)c2[nH]c1=O [Example 24, 6-(difluoromethyl)-5-[4-[(2-ethyl-5-fluoro-3-oxo-4H-quinoxalin-6-yl)methyl]piperazin-1-yl]-N-methyl-pyridine-2-carboxamide]",0.006,> 100,> 100,> 81,> 100,1.1
"CCc1nc2ccc(CN3CCN(c4ccc(C(=O)NC)nc4Cl)CC3)c(F)c2[nH]c1=O [Example 28, 6-chloro-5-[4-[(2-ethyl-5-fluoro-3-oxo-4H-quinoxalin-6-yl)methyl]piperazin-1-yl]-N-methyl-pyridine-2-carboxamide]",0.005,> 100,> 100,> 100,> 100,0.8
"CNC(=O)c1ccc(N2CCN(Cc3ccc4nc(C(F)F)c(=O)[nH]c4c3F)CC2)c(C)n1 [Example 37, 5-[4-[[2-(difluoromethyl)-5-fluoro-3-oxo-4H-quinoxalin-6-yl]methyl]piperazin-1-yl]-N,6-dimethyl-pyridine-2-carboxamide]",0.026,–,–,57,–,5
"CCNC(=O)c1ccc(N2CCN(Cc3ccc4nc(C)c(=O)[nH]c4c3F)CC2)c(F)n1 [Example 45, N-ethyl-6-fluoro-5-[4-[(5-fluoro-2-methyl-3-oxo-4H-quinoxalin-6-yl)methyl]piperazin-1-yl]pyridine-2-carboxamide]",0.006,–,–,> 100,–,1.5
"CNC(=O)c1ccc(N2CCN(Cc3ccc4nc(C(F)(F)F)c(=O)[nH]c4c3F)CC2)c(C)n1 [Example 47, 5-[4-[[5-fluoro-3-oxo-2-(trifluoromethyl)-4H-quinoxalin-6-yl]methyl]piperazin-1-yl]-N,6-dimethyl-pyridine-2-carboxamide]",0.076,> 100,> 100,> 100,> 100,–
"CNC(=O)c1ccc(N2CCN(Cc3ccc4nc(C(F)(F)F)c(=O)[nH]c4c3F)CC2)c(F)n1 [Example 48, 6-fluoro-5-[4-[[5-fluoro-3-oxo-2-(trifluoromethyl)-4H-quinoxalin-6-yl]methyl]piperazin-1-yl]-N-methyl-pyridine-2-carboxamide]",0.039,> 100,> 100,26,> 100,8.8
"CNC(=O)c1ccc(N2CCN(Cc3ccc4nc(C(F)(F)F)c(=O)[nH]c4c3F)CC2)c(Cl)n1 [Example 49, 6-chloro-5-[4-[[5-fluoro-3-oxo-2-(trifluoromethyl)-4H-quinoxalin-6-yl]methyl]piperazin-1-yl]-N-methyl-pyridine-2-carboxamide]",0.043,> 100,> 100,11,> 29,–

# Second part, the molecule after the results:
IC50 (PARP1) [µM],IC50 (PARP6) [µM],IC50 (PARP5a) [µM],IC50 (PARP2) [µM],IC50 (PARP3) [µM],efflux ratio at 90 min (MDR1 and BCRP),Compound
0.006,> 100,> 100,> 100,> 100,1.8,"CNC(=O)c1ccc(N2CCN(Cc3ccc4nc(C)c(=O)[nH]c4c3F)CC2)c(Cl)n1 [Example 30, 6-chloro-5-[4-[(5-fluoro-2-methyl-3-oxo-4H-quinoxalin-6-yl)methyl]piperazin-1-yl]-N-methyl-pyridine-2-carboxamide]"
0.007,> 100,> 100,> 100,> 100,–,"CNC(=O)c1ccc(N2CCN(Cc3ccc4nc(C)c(=O)[nH]c4c3F)CC2)cn1 [Example 32, 5-[4-[(5-fluoro-2-methyl-3-oxo-4H-quinoxalin-6-yl)methyl]piperazin-1-yl]-N-methyl-pyridine-2-carboxamide]"
0.012,> 100,> 100,21,> 100,–,"CNC(=O)c1ccc(N2CCN(Cc3ccc4nc(OC)c(=O)[nH]c4c3F)CC2)cn1 [Example 38, 5-[4-[(5-fluoro-2-methoxy-3-oxo-4H-quinoxalin-6-yl)methyl]piperazin-1-yl]-N-methyl-pyridine-2-carboxamide]"
0.006,> 100,> 100,> 100,> 100,1.9,"CNC(=O)c1ccc(N2CCN(Cc3ccc4nc(OC)c(=O)[nH]c4c3F)CC2)c(F)n1 [Example 39, 6-fluoro-5-[4-[(5-fluoro-2-methoxy-3-oxo-4H-quinoxalin-6-yl)methyl]piperazin-1-yl]-N-methyl-pyridine-2-carboxamide]"
0.011,> 100,13,> 100,> 100,2,"CNC(=O)c1ccc(N2CCN(Cc3ccc4nc(OC)c(=O)[nH]c4c3F)CC2)c(C)n1 [Example 40, 5-[4-[(5-fluoro-2-methoxy-3-oxo-4H-quinoxalin-6-yl)methyl]piperazin-1-yl]-N,6-dimethyl-pyridine-2-carboxamide]"
0.005,> 100,> 100,> 100,> 100,2.4,"CNC(=O)c1ccc(N2CCN(Cc3ccc4nc(OC)c(=O)[nH]c4c3F)CC2)c(Cl)n1 [Example 41, 6-chloro-5-[4-[(5-fluoro-2-methoxy-3-oxo-4H-quinoxalin-6-yl)methyl]piperazin-1-yl]-N-methyl-pyridine-2-carboxamide]"

# Source: patent publication US20250082630A1, “METHODS OF TREATING BRAIN TUMOURS AND NEUROBLASTOMAS” (AstraZeneca AB, priority 2021, published 2025)
